Drawing on patent publication US12595252B2, “Inhibitors of SARM1” (DISARM THERAPEUTICS, INC., priority 2019, dated 2026), this text covers IC50 for 36 compounds.

The experiment has as its target T1, SARM1 (Homo sapiens, UniProt Q6SZW1).
T1 construct: made in house; host or cells: NRK1-HEK293T cells, transiently transfected; clarified lysate used unpurified
T1 sequence (Q6SZW1 with tags, fused parts or gaps): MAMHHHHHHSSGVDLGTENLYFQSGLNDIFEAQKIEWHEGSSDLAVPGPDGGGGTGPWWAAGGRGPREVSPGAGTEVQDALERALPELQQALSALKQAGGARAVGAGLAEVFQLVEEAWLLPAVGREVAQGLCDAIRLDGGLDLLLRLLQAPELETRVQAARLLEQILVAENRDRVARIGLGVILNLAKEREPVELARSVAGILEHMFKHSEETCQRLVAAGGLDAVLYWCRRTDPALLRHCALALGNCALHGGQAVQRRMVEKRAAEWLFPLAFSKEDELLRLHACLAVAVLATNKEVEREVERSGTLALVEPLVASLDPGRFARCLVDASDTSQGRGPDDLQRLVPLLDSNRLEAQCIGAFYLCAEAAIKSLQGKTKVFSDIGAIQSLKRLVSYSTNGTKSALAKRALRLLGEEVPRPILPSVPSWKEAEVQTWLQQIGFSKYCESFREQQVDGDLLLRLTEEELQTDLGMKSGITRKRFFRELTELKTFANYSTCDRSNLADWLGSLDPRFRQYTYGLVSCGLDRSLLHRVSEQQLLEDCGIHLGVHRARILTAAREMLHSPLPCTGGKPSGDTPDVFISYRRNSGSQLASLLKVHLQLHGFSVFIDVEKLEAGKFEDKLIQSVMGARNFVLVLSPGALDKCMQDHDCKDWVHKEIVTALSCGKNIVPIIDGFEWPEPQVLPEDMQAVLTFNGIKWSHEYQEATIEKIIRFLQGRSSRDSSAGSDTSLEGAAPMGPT
Briefly: ARM-SAM-TIR SARM1 IC50 assay (NADase activity, NAD+ cleavage). Format: biochemical. The following applies: ARM-SAM-TIR lysate 5 μg/mL from NRK1-HEK293T cells; 2 h pre-incubation; 5 μM NAD+; 2 hr room temperature; NAD+ and ADPR by RapidFire MS; read-out: SARM1 IC50. How it is done:
This Example describes an assay of ARM-SAM-TIR NADase activity and use of this assay to measure the efficacy of compounds of Formula I to block SARM1 mediated NAD+ cleavage. This assay is optimized in such a way as to characterize the efficacy of the compounds in Formula I to inhibit SARM1 activity and to calculate an IC50 value for each compound. This assay makes use of full length SARM1, which encompasses the ARM, SAM and TIR domains.
NRK1-HEK293T cells were seeded onto 150 cm^2 plates at 20×10^6 cells per plate. The next day, the cells were transfected with 15 μg ARM-SAM-TIR expression plasmid, SEQ ID NO: 1.
The cultures were supplemented with 1 mM NR at time of transfection to minimize toxicity from ARM-SAM-TIR overexpression. Forty-eight hours after transfection, cells were harvested, pelleted by centrifugation at 1,000 rpm (Sorvall ST 16R centrifuge, Thermo Fisher), and washed once with cold PBS (0.01 M phosphate buffered saline NaCl 0.138 M; KCl 0.0027 M; pH 7.4). The cells were resuspended in PBS with protease inhibitors (cOmplete™ protease inhibitor cocktail, Roche product #11873580001) and cell lysates were prepared by sonication (Branson Sonifer 450, output=3, 20 episodes of stroke). The lysates were centrifuged (12,000×g for 10 min at 4° C.) to remove cell debris and the supernatants (containing ARM-SAM-TIR protein) were stored at −80° C. for later use in the in vitro ARM-SAM-TIR NADase assay (see below). Protein concentration was determined by the Bicinchoninic (BCA) method and used to normalize lysate concentrations.
The enzymatic assay was performed in a 384-well polypropylene plate in Dulbecco's PBS buffer in a final assay volume of 20 μL. ARM-SAM-TIR lysate with a final concentration of 5 μg/mL was pre-incubated with the respective compound at 1% DMSO final assay concentration over 2 h at room temperature. The reaction was initiated by addition of 5 μM final assay concentration of NAD+ as substrate. After a 2 hr room temperature incubation, the reaction was terminated with 40 μL of stop solution of 7.5% trichloroacetic acid in acetonitrile. The NAD+ and ADPR concentrations were analyzed by a RapidFire High Throughput Mass Spectrometry System (Agilent Technologies, Santa Clara, Calif.) using an API4000 triple quadrupole mass spectrometer (AB Sciex Framingham, Mass.).
Regarding `CCN1CCN(c2ccc(CNc3cnccn3)cn2)CC1` [Example 178], the IC50 – broadly, the concentration that gives 50% inhibition – was > 30 µM.
The result for `CCN1CCN(c2ccc(CNc3cnccn3)cc2)CC1` [Example 182] reads > 30 µM; that for `CCOc1cncc(NCc2cnccn2)n1` [Example 183], > 30 µM.
With `CCOc1cncc(NC(C)c2ccccn2)n1` (stereo not drawn) [Example 184], the IC50 is > 30 µM.
Take `CCOc1cncc(NCc2ccccn2)n1` [Example 185]: the IC50 was > 30 µM.
The result for `Brc1cncc(NCc2cccnc2)n1` [Example 186] reads > 30 µM; that for `Clc1cncc(NCc2cccnc2)n1` [Example 187], > 30 µM; that for `Brc1cncc(OCc2cccnc2)n1` [Example 188], > 30 µM.
Consider `Clc1cncc(OCc2cccnc2)n1` [Example 189], for which the IC50 is > 30 µM.
Take `CCOc1cncc(OCc2cccnc2)n1` [Example 190]: the IC50 was > 30 µM.
The result for `CCOc1cncc(NC(=O)c2cccnc2)n1` [Example 191] reads > 30 µM; that for `CCOc1cncc(NC(=O)c2ccccc2)n1` [Example 192], > 30 µM; that for `CCOc1cncc(NC(C)=O)n1` [Example 193], > 30 µM.
Turning to `CCOc1cncc(NS(C)(=O)=O)n1` [Example 195], the 50% inhibitory concentration (IC50) is > 30 µM.
As for `COc1cncc(C(=O)NCc2ccccc2)n1` [Example 196], the figure is > 30 µM; as for `COc1cncc(C(=O)Nc2ccccc2)n1` [Example 197], > 30 µM; as for `c1ccc(COc2cncc(NCc3cccnc3)n2)cc1` [Example 198], > 30 µM.
As for `c1cncc(CNc2cncc(OCC3CCCC3)n2)c1` [Example 199], the figure is > 30 µM; as for `CCCc1cncc(NCc2cccnc2)n1` [Example 200], > 30 µM; as for `Cc1ncc(Cl)nc1NCc1cccnc1` [Example 201], > 30 µM.
The result for `COc1cncc(N(C)Cc2cccnc2)n1` [Example 202] reads > 30 µM; that for `COc1cnc(NCc2cccnc2)cn1` [Example 203], > 30 µM; that for `COc1cnc(C)c(NCc2cccnc2)n1` [Example 204], > 30 µM.
Consider `COc1cncc(NCc2cn(C)nc2C)n1` [Example 206], for which the IC50 is > 30 µM.
The result for `COc1cncc(S(=O)(=O)NCc2ccccc2)c1` [Example 207] reads > 30 µM; that for `COc1cncc(N(C)S(=O)(=O)c2ccccc2)c1` [Example 208], > 30 µM; that for `COc1cncc(NS(=O)(=O)c2ccccc2)c1` [Example 209], > 30 µM.
As for `COc1cncc(NCC2CCCOC2)n1` (stereo not drawn) [Example 210], the figure is > 30 µM.
The result for `COc1cncc(NCc2cccc(S(N)(=O)=O)c2)n1` [Example 211] reads 5 to 15 µM.
For the compound `NC(=O)c1cncc(NCc2cccnc2)n1` [Example 212], the IC50 was > 30 µM.
Take `CN(C)C(=O)c1cncc(NCc2cccnc2)n1` [Example 213]: the IC50 is > 30 µM.
Take `Cn1cc(CNc2cncc(O)n2)cn1` [Example 214]: the IC50 was > 30 µM.
In the case of `OCc1cncc(NCc2cccnc2)n1` [Example 215], the IC50 is > 30 µM.
The result for `COc1cncc(NCc2ccc(N3CCN(c4ccccc4)CC3)nc2)n1` [Example 216] reads > 30 µM.
As for `CNc1ccnc(NC)n1` [Example 217], the figure is > 30 µM.
As for `CNc1cncc(Br)n1` [Example 218], the figure is > 30 µM.
